In US12569515B2, “Gold-containing agents for the treatment of lung infections” (Aurovir Pharma GmbH, priority 2020, dated 2026):

Tests used:
[1] = molecular target: SARS-CoV-2 spike protein / ACE2 receptor interaction (Severe acute respiratory syndrome coronavirus 2, UniProt P0DTC2); test: Inhibition of the spike/ACE2 interaction by ELISA; type: binding
CaLu-3 cells = test: Cytotoxicity in CaLu-3 cells (crystal violet, 24 hours); type: cell-based; conditions: for Cytotoxicity in CaLu-3 cells: concentrations of up to 100 μM, combinations with respect to AM or AG
Protocol: In order to determine the cytotoxicity, CaLu-3 cells were cultured in 96-well microtitre plates. The cell culture medium was replaced with fresh medium which contained the gold compounds in concentrations of 25, 50 or 100 μM and incubated for 24 hours at 37° C./5% CO2. Next, the remaining cells were photometrically determined using crystal violet stain (Victor X4 microplate reader). The quantity of cells in the treated samples was calculated as a percentage with respect to an untreated control.

[2] = molecular target: SARS-CoV-2 3CL protease (Mpro) (Severe acute respiratory syndrome coronavirus 2, UniProt P0DTD1); test: Inhibition of SARS-CoV-2 protease 3CLpro; type: biochemical; conditions: 1 h preincubation at 37° C.
Protocol: 50 μL of the test substance solutions or pure HEPES buffer (positive control) was respectively added thereto and the resulting solutions were mixed and incubated for one hour at 37° C.

SARS-CoV-2 PLpro [3] = molecular target: T1, SARS-CoV-2 PLpro (Severe acute respiratory syndrome coronavirus 2, UniProt P0DTD1); test: Inhibition of SARS-CoV-2 protease PLpro (fluorogenic substrate Z-Arg-Leu-Arg-Gly-Gly-AMC); type: biochemical; conditions: 1 h preincubation at 37° C.; for the mixture with respect to the quantity of aurothioglucose
T1 construct: SARS-CoV-2 protease Papain-Like Protease (PLpro)

[4] = tested on: bovine coronavirus (BCoV); type: cell-based
SARS-CoV-2 PLpro [5] = molecular target: T1, SARS-CoV-2 PLpro; test: Removal of zinc from PLpro (FluoZin-3 fluorescence); type: biochemical; conditions: 50 μM test compound, 500 nM PLpro, up to 90 minutes (FIG. 10)
Protocol: In addition to a cysteine in the catalytic centre of the enzyme, the protease Plpro contains further cysteines in a zinc binding domain which stabilise the structure and function of the enzyme. The removal of the bound zinc constitutes an interesting mechanism for the action of inhibitors for PLpro.
In order to establish whether the inhibitors are Zn-removing agents, the presence of the Zn^2+ cation in solution was determined as follows. The inhibitor compounds were prepared as stock solutions in DMSO, as stock solutions in water or DMSO and diluted one hundred-fold with HEPES buffer ([…], pH 7.5) to 100 μM concentrations. Volumes of 50 μL of SARSCoV-2 PLpro (Elabscience) in HEPES buffer or blank HEPES buffer (control for false positive results) were placed in the wells of a black 96-well microtitre plate (Nunclon, Nunc). Volumes of 50 μL of the inhibitor solutions or 1% DMSO in HEPES buffer (control) were added. […] The resulting solutions were mixed and the fluorescence emission was determined after 10 min, every 10 min over a period of 90 minutes, at 37° C. (λexc=485 nm, λem=535 nm); Victor X4 microtitre plate reader). The relative fluorescence was calculated by dividing the absolute fluorescence emission of the well which contained the inhibitor by the absolute fluorescence of the corresponding well which contained the enzyme but no inhibitor (control). […]

[6] = tested on: mouse model for acute allergic asthma; test: Anti-inflammatory action in a mouse model for acute allergic asthma, intranasal application

With `CC(=O)N[C@@H](CS)C(=O)O` [N-acetylcysteine] as the molecule, how does the remaining activity at 100 µM ([1]; 100 μM, N-acetylcysteine alone, read-out: Spike/ACE2 interaction remaining, % of control) read?
Its remaining activity at 100 µM is 97%.

How did the “Quantity of cells, % of the untreated control” value (CaLu-3 cells; 25 μM, CaLu-3 cells) turn out when `CC(=O)OC[C@H]1O[C@@H]([S-])[C@H](OC(C)=O)[C@@H](OC(C)=O)[C@@H]1OC(C)=O.CCP(CC)CC.[Au+]` [auranofin] was run?
The value was < 20 % of the untreated control.

Which IC50 [2] does the source give for `OC[C@H]1O[C@H]([S-])[C@H](O)[C@@H](O)[C@@H]1O.[Au+]` [aurothioglucose] here?
Its IC50 is 8.25 µM.

And the IC50 (SARS-CoV-2 PLpro [3])?
Its IC50 is 7.03 µM.

And the “Cytotoxicity in CaLu-3 cells” value (CaLu-3 cells)?
Its value is “no relevant cytotoxicity”.

And the “Reduction in the viral load” value ([4]; 256 μM aurothioglucose, preincubated 1 h with 100 TCID50 BCoV, MDBK cells, 12-48 hours)?
Its value is 10 fold.

And the “Affinity for the spike protein of SARS-CoV-2 virus” value [1]?
The value was “high affinity”.

What about the “Inhibition of the spike/ACE2 interaction” value ([1]; 20 μM aurothioglucose (FIG. 8)) of the same molecule?
The value was “resulted in an inhibition”.

And the “Removal of zinc from PLpro” value (SARS-CoV-2 PLpro [5])?
The value was “comparable with the reference compound disulfiram”.

Which IC50 [2] does the source give for `O=C(O)CC([S-])C(=O)O.[Au+]` (centres unmarked) [aurothiomalate] here?
Its IC50 is 22.9 µM.

And the IC50 (SARS-CoV-2 PLpro [3])?
The IC50 was 0.6 µM.

What about the “Cytotoxicity in CaLu-3 cells” value (CaLu-3 cells) of the same molecule?
Its value is “no relevant cytotoxicity”.

For `NC(=O)c1nc(F)c[nH]c1=O` [favipiravir], which “Viral load formed on adding favipiravir” value [4] is on record?
Its value is “reduction in the viral load”.

For auroacetylcysteine, which “Total inflammatory cells in bronchial secretions, extent of respiratory tract inflammation, eosinophils and neutrophiles, inflammatory infiltrates in lung parenchyma” value ([6]; 10 mg/kg over 5 days) is on record?
The value was “reduced”.

And the “Inflammatory parameters peribronchially and in the parenchyma” value ([6]; 10 mg/kg, histology)?
The value was “reduced”.

And the “Deaths in treatment group” value ([6]; AAC group, 5 mice)?
Its value is “one death”.

What about the “Eosinophilic and neutrophilic granulocytes and lymphocytes” value ([6]; cell populations (FIG. 5)) of the same molecule?
Its value is “reduced”.

What about the Macrophages ([6]; cell populations (FIG. 5)) of the same molecule?
The Macrophages was “increased compared with dexamethasone”.

And the “Total cell count in bronchoalveolar lavage” value ([6]; intranasal, compared with placebo and dexamethasone 1 mg/kg (FIG. 2))?
Its value is “comparable with dexamethasone”.

And the “Anti-inflammatory effect in the tissue” value ([6]; versus dexamethasone 1 mg/kg)?
Its value is “comparable with that of dexamethasone”.
